Source: PMC8246065 (The EMBO Journal, 2021)
Read-outs that look alike come from different tables or passages of the source.

Legend:
NOD1 and NOD2 = experiment: Immunoprecipitation with lipid-coated beads; type: binding, human; settings: HeLa NOD1-GFP / NOD2-GFP lysates, room temperature 2 h
Description: HeLa NOD1 or NOD2 cells were grown overnight and afterward treated with doxycycline overnight to induce NOD1 or NOD2 expression. Cells of one 10‐cm dish were lysed with 500 µl of lysis buffer (25 mM Tris–HCl, pH 7.5, 150 mM NaCl, 1 mM EDTA, 1% NP‐40, and 5% glycerol) supplemented with protease inhibitors (Roche, 05892791001) on ice for 20 min. Lysates were centrifuged at 16,000 × g at 4°C for 10 min, and supernatants were mixed with GFP‐Trap agarose (ChromoTek GmbH, gta‐20) overnight at 4°C. Afterward, agaroses were washed twice with PBS and boiled with sample buffer for SDS–PAGE. For lipid‐coated beads IP, lipid‐coated beads were incubated with supernatants for 2 h at room temperature and then washed with lysis buffer for three times and boiled with sample buffer for SDS–PAGE.

NOD1∆LRR = target: T1, NOD1∆LRR (Homo sapiens, UniProt Q9Y239); experiment: MST with cell lysates expressing NOD1 mutants; type: binding; settings: Fig EV5D
T1 sequence (Q9Y239 1-531 limits assumed): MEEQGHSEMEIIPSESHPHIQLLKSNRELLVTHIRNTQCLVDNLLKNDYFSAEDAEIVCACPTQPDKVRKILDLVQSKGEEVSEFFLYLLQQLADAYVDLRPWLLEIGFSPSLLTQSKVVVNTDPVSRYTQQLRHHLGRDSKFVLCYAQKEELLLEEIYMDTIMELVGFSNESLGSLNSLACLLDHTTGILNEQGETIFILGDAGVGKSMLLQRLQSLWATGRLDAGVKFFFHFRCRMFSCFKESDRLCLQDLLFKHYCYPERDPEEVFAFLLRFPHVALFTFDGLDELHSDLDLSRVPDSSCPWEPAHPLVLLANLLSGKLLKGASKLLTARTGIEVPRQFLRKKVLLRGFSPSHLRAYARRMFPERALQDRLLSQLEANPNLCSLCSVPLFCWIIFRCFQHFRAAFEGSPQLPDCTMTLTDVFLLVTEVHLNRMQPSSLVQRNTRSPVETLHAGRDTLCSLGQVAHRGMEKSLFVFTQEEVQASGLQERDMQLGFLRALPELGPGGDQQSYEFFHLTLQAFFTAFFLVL
Description: (§1) Binding of NOD1, NOD2, GFP, or NLRP3‐GFP to different ligands was measured by microscale thermophoresis (MST). 20 nM GFP or GFP‐tagged proteins in MST buffer (PBS pH 7.4, containing 0.5% NP‐40 and 10 mM DTT) was incubated with different concentrations of ligands. Immediately, samples were loaded into standard glass capillaries (NanoTemper) and thermophoresis analysis was performed on a NanoTemper Monolith NT.115 instrument (40% LED, 80% MST power) at 22°C. A laser on‐time of 30 s and a laser off‐time of 5 s were used. The experiment was performed in triplicates, and the MST curves were fitted using NT analysis software to obtain the K d values.

NLRP3 = target: T2, NLRP3 (Homo sapiens, UniProt Q96P20); experiment: MST binding to NLRP3-GFP; settings: Fig 6C
T2 construct: Addgene (plasmid only) 73955
T2 sequence (Q96P20 whole entry): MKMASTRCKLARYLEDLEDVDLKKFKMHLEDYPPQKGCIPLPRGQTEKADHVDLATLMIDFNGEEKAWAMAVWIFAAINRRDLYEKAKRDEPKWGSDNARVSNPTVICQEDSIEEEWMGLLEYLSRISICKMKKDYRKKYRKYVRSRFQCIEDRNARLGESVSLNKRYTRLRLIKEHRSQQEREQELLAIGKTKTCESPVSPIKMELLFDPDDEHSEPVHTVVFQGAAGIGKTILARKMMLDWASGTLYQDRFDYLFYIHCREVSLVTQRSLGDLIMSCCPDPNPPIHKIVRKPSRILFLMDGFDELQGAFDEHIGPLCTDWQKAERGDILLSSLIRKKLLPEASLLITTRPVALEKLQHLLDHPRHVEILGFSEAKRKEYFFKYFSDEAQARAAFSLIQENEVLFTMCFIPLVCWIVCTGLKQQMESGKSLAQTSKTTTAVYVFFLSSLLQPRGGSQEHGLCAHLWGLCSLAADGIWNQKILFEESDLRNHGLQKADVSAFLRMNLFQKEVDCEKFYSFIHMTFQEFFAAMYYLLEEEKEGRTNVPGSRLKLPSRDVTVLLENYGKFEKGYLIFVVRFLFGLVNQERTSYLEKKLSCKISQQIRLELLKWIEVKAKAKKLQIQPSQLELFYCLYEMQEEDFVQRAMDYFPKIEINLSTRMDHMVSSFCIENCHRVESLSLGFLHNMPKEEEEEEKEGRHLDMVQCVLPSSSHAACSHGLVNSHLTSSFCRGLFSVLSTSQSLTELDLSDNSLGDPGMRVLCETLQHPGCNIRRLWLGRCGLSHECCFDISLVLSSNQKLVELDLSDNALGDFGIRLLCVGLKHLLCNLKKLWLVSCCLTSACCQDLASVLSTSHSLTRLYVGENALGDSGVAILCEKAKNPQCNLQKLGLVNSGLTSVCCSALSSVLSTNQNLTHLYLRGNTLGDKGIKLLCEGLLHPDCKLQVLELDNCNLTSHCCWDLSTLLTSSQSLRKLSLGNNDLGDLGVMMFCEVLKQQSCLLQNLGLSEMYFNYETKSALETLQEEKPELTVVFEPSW
Description: as §1

[1] = system: HeLa inducible NOD1 or NOD2 cells; experiment: ELISA of IL6/IL8 in supernatants of HeLa inducible NOD1 or NOD2 cells; type: cell-based, human
Description: To differentiate THP‐1 into macrophage‐like cells, THP‐1 cells were stimulated with 50 ng/ml phorbol 12‐myristate 13‐acetate (Sigma‐Aldrich, P8139) for 24 h and then incubated with fresh medium for another 48 h. […] To induce NOD1 or NOD2 expression, HeLa NOD1 or NOD2 cells were treated with 0.5 µg/ml or 0.25 µg/ml doxycycline for at least 16 h, respectively. All cells have been checked for mycoplasma contamination regularly. Bone marrow‐derived macrophages (BMDMs) were obtained from tibial and femural bones and generated with DMEM containing 20% L929 cell supernatant, 10% FBS, 5% heat‐inactivated horse serum, 1 mM sodium pyruvate, and 2 mM L‐glutamine. For BMDM stimulation experiments, BMDMs were treated with IFN‐γ (20 ng/ml) overnight before stimulation.

NOD2 = NOD2 (Homo sapiens, UniProt Q9HC29); experiment: Microscale thermophoresis (MST) binding to purified NOD2-GFP
Chain of NOD2 (Q9HC29 whole entry): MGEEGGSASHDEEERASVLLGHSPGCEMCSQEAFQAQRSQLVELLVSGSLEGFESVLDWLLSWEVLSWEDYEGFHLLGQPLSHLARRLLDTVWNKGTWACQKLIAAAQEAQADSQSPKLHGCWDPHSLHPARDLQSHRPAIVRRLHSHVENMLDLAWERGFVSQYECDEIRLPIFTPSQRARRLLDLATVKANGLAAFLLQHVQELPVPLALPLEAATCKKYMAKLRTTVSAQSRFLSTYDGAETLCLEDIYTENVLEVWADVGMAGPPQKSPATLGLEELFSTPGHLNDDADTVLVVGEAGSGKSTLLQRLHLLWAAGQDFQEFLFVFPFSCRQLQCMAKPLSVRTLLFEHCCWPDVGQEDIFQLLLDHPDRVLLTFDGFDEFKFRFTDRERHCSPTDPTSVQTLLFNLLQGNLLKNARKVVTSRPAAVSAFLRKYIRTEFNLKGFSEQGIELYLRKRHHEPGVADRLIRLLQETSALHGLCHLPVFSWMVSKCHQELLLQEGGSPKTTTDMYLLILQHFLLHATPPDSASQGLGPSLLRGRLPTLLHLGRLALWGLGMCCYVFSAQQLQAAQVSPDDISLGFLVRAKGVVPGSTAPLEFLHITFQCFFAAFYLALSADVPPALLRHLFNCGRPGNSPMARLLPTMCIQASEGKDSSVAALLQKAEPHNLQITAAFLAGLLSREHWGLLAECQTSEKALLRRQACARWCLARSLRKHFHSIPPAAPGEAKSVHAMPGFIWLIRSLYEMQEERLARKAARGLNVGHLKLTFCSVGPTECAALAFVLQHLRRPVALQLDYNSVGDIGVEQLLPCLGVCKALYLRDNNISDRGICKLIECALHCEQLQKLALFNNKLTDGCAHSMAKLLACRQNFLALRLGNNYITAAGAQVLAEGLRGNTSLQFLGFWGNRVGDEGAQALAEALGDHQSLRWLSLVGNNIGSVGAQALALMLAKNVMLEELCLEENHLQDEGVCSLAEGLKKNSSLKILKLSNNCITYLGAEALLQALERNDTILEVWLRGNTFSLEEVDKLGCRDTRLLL
Description: The lysates were incubated with 2 ml GFP‐Trap agarose at 4°C for 4 h. The agarose was collected with Poly‐Prep columns by gravity flow. […] To remove heat shock proteins, columns were further washed with 50 ml wash buffer III (50 mM Tris–HCl, pH 7.5, 150 mM NaCl, 5 mM MgCl2+, 1 mM ATP). To elute the proteins, the agarose was mixed with 2 ml elution buffer (100 mM Glycine, pH 2.5) for 1 min and the eluted proteins were immediately neutralized with 0.2 ml of 1 M Tris, pH 10.5.

SMILES: CCCCCCCCCCCCC/C=C/[C@@H](O)[C@@H](N)COP(=O)(O)O [S1P, sphingosine‐1‐phosphate]
- Immunoprecipitation of NOD1 and NOD2 with lipid-coated beads (NOD1 and NOD2): specifically immunoprecipitated
- Interaction with NOD1∆LRR by MST (NOD1∆LRR): still interacted
- Direct interaction with NLRP3 by MST (NLRP3): not observed
- IL6 production compared to iE-DAP or MDP at the same concentration ([1]; 0.5, 5 or 20 µM with digitonin (5 µg/ml), Fig EV4E,F): higher IL6 production
- IL6 production on co-stimulation vs single stimulation ([1]; S1P (2 µM) with iE-DAP or MDP (3, 20, 50 µM), digitonin, 20 h): significantly higher IL6 production
- IL6 or IL8 production ([1]; cytosolic delivery with digitonin (5 µg/ml), 20 h): induced abundant IL6 or IL8 production
- IL6 or IL8 production ([1]; extracellular stimulation (absence of digitonin), S1P 10 µM): did not induce marked IL6 or IL8 production
- Kd (NOD2; Fig 6E, one representative experiment, read-out: Kd (NOD2/ligand)): 5.36 ± 1.91 µM
- Kd (NOD2; Fig EV5C, purified NOD2, read-out: Kd (NOD2/ligand)): 3.19 ± 1.97 µM
- Kd (NOD2; Kd value of S1P interacting with NOD2, as stated in text): ~5 µM
- Kd (NOD2; Kd(NOD2: S1P), Fig 7D, S1P alone): 2.4 ± 0.38 µM
